The target in experiment [1] is T1, ResT (Borreliella burgdorferi, UniProt O50979).
T1 construct: made in house; host or cells: E. coli BL21 (lambda DE3) pLysS, strain BGC88 carrying pKK4
T1 sequence (O50979 1-449): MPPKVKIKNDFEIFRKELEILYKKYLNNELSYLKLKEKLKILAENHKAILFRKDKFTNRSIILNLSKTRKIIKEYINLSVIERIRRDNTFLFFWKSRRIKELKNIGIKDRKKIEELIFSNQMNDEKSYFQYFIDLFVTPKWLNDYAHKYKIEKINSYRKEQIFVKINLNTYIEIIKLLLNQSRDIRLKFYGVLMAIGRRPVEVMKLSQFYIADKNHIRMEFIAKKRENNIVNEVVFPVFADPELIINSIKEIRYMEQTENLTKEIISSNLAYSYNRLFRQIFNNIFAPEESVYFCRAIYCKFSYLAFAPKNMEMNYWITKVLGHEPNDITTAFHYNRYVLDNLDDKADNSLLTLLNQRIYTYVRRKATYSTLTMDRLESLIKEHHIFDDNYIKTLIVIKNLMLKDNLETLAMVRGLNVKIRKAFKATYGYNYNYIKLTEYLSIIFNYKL
The experiment in a line: In vitro telomere resolution by ResT (plasmid substrate, agarose gel). Format: biochemical. To be noted: for inhibition of ResT: 2 mM, data not shown; for concentration at which complete inhibition of ResT activity was observed: pYT1 as the substrate, agarose gel, FIG. 8A; for effect of peptide on in vitro ResT activity: peptide inhibitors of tyrosine recombinase or topoisomerase, FIG. 9. The protocol:
The activity of the purified recombinant protein (ResT) was assayed using plasmids previously established to be in vivo substrates for telomere resolution in B. burgdorferi (Chaconas et al., 2001). pGCL15-6 has a 70 bp replicated left-end telomere from the linear plasmid Ip17 (FIG. 1B). Typical reaction conditions, herein defined as 1× reaction are as follows: 25 mM Tris-HCl [pH 8.5], 100 mM NaCl, 1 mM EDTA, 5 mM spermidine, 100 μg/ml bovine serum albumin, 5 μg/ml substrate DNA and 2 μg/ml ResT. Reactions (typically 30 μl) were incubated at 30° C. for 30 min and terminated by addition of SDS to a final concentration of 0.5%. Spermidine contributes an approximate 3-fold stimulation to the reaction and was therefore omitted from the reactions used for cleavage site determination. Linearized and relaxed plasmid substrates were prepared in 10-20 μg batches by reaction with the specified restriction enzyme with the manufacturers buffers or with Shope Fibroma Virus topoisomerase I (gift of Dr. David Evans, University of Guelph), in ResT reaction buffer. These reactions were then extracted with phenol/chloroform, chloroform alone, and subsequently ethanol precipitated and resuspended in 25 mM Hepes-NaOH [pH 7.6], 0.1 mM EDTA.
Reactions were performed containing increasing amounts of the topoisomerase inhibitors coumermycin A1 or novobiocin. The reactions were analyzed by agarose gel electrophoresis followed by staining with ethidium bromide.
In vitro ResT activity was assayed in the presence of peptide inhibitors provided by Dr. Anca Segall, San Diego State University. These peptides were previously characterized as inhibitors of tyrosine recombinase or topoisomerase activity (Cassell et al., 2000; Klemm et al., 2000). […] The results also raise the possibility for further development of peptide inhibitors of ResT for therapeutic and/or environmental agents to inhibit growth of Borrelia species.

In experiment [2] the test system is B. burgdorferi strain (NGR) carrying a triple mutation in the gyrB gene. The experiment in a line: Growth of B. burgdorferi strain (NGR) carrying coumarin-resistant gyrase in culture. The note with it: read-out: IC50, inhibition of growth of B. burgdorferi carrying the resistant gyrase. The class given is cell-based, Borrelia burgdorferi. The method, then: To determine whether coumermycin Al and novobiocin could block growth of B. burgdorferi in culture, a B. burgdorferi strain (NGR) carrying a triple mutation in the gyrB gene (Knight et al., 2000; Rosa et al., 1996) was used (provided by Dr. D. Scott Samuels, University of Montana, Missoula). The triple mutation in the gyrase B subunit renders the mutant DNA gyrase resistant to coumermycin A1 and novobiocin. B. burgdorferi carrying the resistant gyrase was grown in the absence, or in the presence of increasing amounts of coumermycin A1 or novobiocin. […] The drug concentrations for complete inhibition of growth were almost identical to the concentrations of both drugs required for complete inhibition of ResT in vitro.

Where two headings read alike, the source gives them in different places.

The IC50 is the point on the concentration scale where inhibition reaches its midpoint.

With `CC[C@@]1(O)C(=O)OCc2c1cc1n(c2=O)Cc2cc3ccccc3nc2-1` [camptothecin], the “inhibition of ResT” value in experiment [1] is “did not inhibit”.

As to `CCn1cc(C(=O)O)c(=O)c2ccc(C)nc21` [nalidixic acid], in experiment [1], the “inhibition of ResT” value is “did not inhibit”.

As to `CO[C@@H]1[C@@H](OC(N)=O)[C@@H](O)[C@H](Oc2ccc3c(O)c(NC(=O)c4ccc(O)c(CC=C(C)C)c4)c(=O)oc3c2C)OC1(C)C` [novobiocin], the “concentration at which complete inhibition of ResT activity was observed” value in experiment [1] turned out to be 1 mM. The IC50 in experiment [2] (Borreliella burgdorferi) turned out to be 255 µM.

Turning to `NCCCCNCCCN` [spermidine], the “stimulation of the in vitro telomere resolution reaction” value in experiment [1] (5 mM spermidine in 1× reaction) was approximately 3 fold.

Turning to “Peptide #52: peptide which traps the Holliday junction intermediate in λ recombination (WKHYNY; Peptide #52)”, in experiment [1], the “effect of peptide on in vitro ResT activity” value is recorded as “did not have any effect”.

Take coumermycin A1: in experiment [1], the “concentration at which complete inhibition of ResT activity was observed” value was 0.15 mM. Moreover, the IC50 in experiment [2] (gyrB triple mutant strain NGR, FIG. 8B) amounted to 75 µM.

As to “peptide #59: peptide which inhibits DNA cleavage by λ integrase (KWWCRW; Peptide #59)”, the “effect of peptide on in vitro ResT activity” value in experiment [1] is recorded as “mild stimulator”.
